Source: the supplement of paper PMC10307832

Assays:
Experiment in all cases: relative viability (nuclei count vs DMSO), 5 days (fraction); higher = more cells survive
[1] = compound: C/C(=N\NC(=S)N1CCC1)/C2=CC=CC=N2
Method in brief: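 Hoechst staining, done together with fixation and permeabilisation, marked nuclei for 4× imaging and MetaXpress counting. This followed 5 days without medium change after lung cancer cell lines, kept overnight at 37 °C in 1536-well plates, were pinned with five library-drug doses (not always all listed) spaced by √10 on vehicle-anchored plates. Viability is the ratio of treated-well to vehicle-well nuclei, expressed as a median across plates. Plates passed only at control CV below 25% with at least one doubling.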

[2] = compound: C/C(=N\NC(=S)N1CCC1)/C2=CC=CC=N2 + CC(=O)c1c(C)c2cnc(Nc3ccc(N4CCNCC4)cn3)nc2n(C2CCCC2)c1=O [Palbociclib] (partner 0.5 µM)
Method in brief: (§1)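 Relative viability equals treated-well nuclei counts divided by vehicle-well nuclei counts. Counts came from 4× images of lung cancer cell lines grown in 1536-well plates for 5 days after pin-tool dosing on the day after seeding. Dosing used one drug alone or a fixed anchor-drug dose plus five library-drug doses (not always all listed) in √10 steps, and values are medians of duplicate plates.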

[3] = compound: C/C(=N\NC(=S)N1CCC1)/C2=CC=CC=N2 + COc1cc2c(Oc3ccc(NC(=O)C4(C(=O)Nc5ccc(F)cc5)CC4)cc3F)ccnc2cc1OCCCN1CCOCC1 [Foretinib] (partner 0.25 µM)
Method in brief: as §1

[4] = compound: C/C(=N\NC(=S)N1CCC1)/C2=CC=CC=N2 + COc1cccc2cc(-c3nc([C@H]4CC[C@H](C(=O)O)CC4)n4ncnc(N)c34)[nH]c12 [OSI-027] (partner 0.5 µM)
Method in brief: as §1

Cell Line	relative viability ([1]; 0.05 µM)	relative viability ([1]; 0.1581 µM)	relative viability ([1]; 0.5 µM)	relative viability ([1]; 1.581 µM)	relative viability ([1]; 5 µM)	relative viability ([2]; first compound 0.05 µM)	relative viability ([2]; first compound 0.1581 µM)	relative viability ([2]; first compound 0.5 µM)	relative viability ([2]; first compound 1.581 µM)	relative viability ([2]; first compound 5 µM)	relative viability ([3]; first compound 0.05 µM)	relative viability ([3]; first compound 0.1581 µM)	relative viability ([3]; first compound 0.5 µM)	relative viability ([3]; first compound 1.581 µM)	relative viability ([3]; first compound 5 µM)	relative viability ([4]; first compound 0.05 µM)	relative viability ([4]; first compound 0.1581 µM)	relative viability ([4]; first compound 0.5 µM)	relative viability ([4]; first compound 1.581 µM)	relative viability ([4]; first compound 5 µM)
NCI-H1993	0.472	0.529	0.593	0.499	0.577	0.345	0.36	0.349	0.405	0.377	0.542	0.516	0.567	0.631	0.526	0.519	0.542	0.516	0.541	0.545
NCI-H2009	0.122	0.17	0.166	0.156	0.138	0.0949	0.102	0.108	0.112	0.0775	0.143	0.183	0.186	0.213	0.184	0.0946	0.153	0.17	0.129	0.12
NCI-H2023	0.0831	0.0809	0.0814	0.0675	0.0747	0.0715	0.0684	0.0648	0.0566	0.086	0.0821	0.0789	0.0763	0.0636	0.077	0.0569	0.0687	0.0687	0.0508	0.0603
NCI-H2085	0.359	0.321	0.357	0.299	0.313	0.275	0.303	0.261	0.279	0.273	0.322	0.373	0.296	0.269	0.253	0.276	0.214	0.255	0.24	0.187
NCI-H2087	0.16	0.218	0.19	0.165	0.138	0.104	0.0945	0.12	0.118	0.0998	0.185	0.178	0.193	0.15	0.121	0.132	0.14	0.143	0.122	0.0904
NCI-H2126	0.236	0.246	0.214	0.197	0.21	0.249	0.34	0.212	0.207	0.209	0.223	0.167	0.167	0.213	0.201	0.206	0.225	0.21	0.212	0.205
NCI-H2170	0.391	0.282	0.268	0.198	0.176	0.37	0.378	0.17	0.131	0.121	0.871	0.341	0.312	0.199	0.203	0.34	0.294	0.237	0.217	0.158
NCI-H2228	0.192	0.217	0.21	0.118	0.187	0.134	0.167	0.127	0.0641	0.315	0.227	0.129	0.145		0.113	0.116	0.152	0.207		0.0944
NCI-H2342	0.274	0.277	0.266	0.239	0.259	0.276	0.283	0.274	0.253	0.255	0.255	0.244	0.263	0.24	0.233	0.288	0.263	0.27	0.264	0.262
NCI-H2347	0.315	0.346	0.34	0.256	0.313	0.323	0.305	0.282	0.277	0.29	0.321	0.391	0.312	0.31	0.28	0.242	0.208	0.255	0.234	0.218
NCI-H2405	0.294	0.296	0.288	0.274	0.283	0.217	0.25	0.26	0.214	0.21	0.263	0.313	0.31	0.251	0.264	0.26	0.238	0.229	0.226	0.24
NCI-H3122	0.13	0.121	0.129	0.168	0.141	0.0974	0.166	0.103	0.148	0.127	0.101	0.0817	0.0973	0.149	0.158	0.138	0.0988	0.132	0.134	0.129
PC-3 [JPC-3]	0.473	0.459	0.358	0.309	0.231	0.328	0.485	0.409	0.362	0.373	0.518	0.525	0.349	0.259	0.242	0.271	0.301	0.265	0.25	0.214
PC-14	0.0727	0.104	0.0714	0.0553	0.064	0.0312	0.0553	0.052	0.0451	0.0402	0.141	0.113	0.129	0.0971	0.0805	0.0306	0.0778	0.0467	0.041	0.0364
RERF-LC-KJ	0.263	0.262	0.252	0.244	0.248	0.211	0.19	0.194	0.198	0.212	0.292	0.261	0.297	0.28	0.259	0.266	0.258	0.251	0.221	0.243
SK-LU-1	0.24	0.233	0.25	0.168	0.208	0.233	0.233	0.246	0.196	0.233	0.214	0.19	0.221	0.149	0.172	0.145	0.136	0.131	0.124	0.151
SK-MES-1	0.197	0.231	0.192	0.171	0.19	0.221	0.2	0.2	0.174	0.177	0.201	0.257	0.223	0.166	0.238	0.197	0.182	0.157	0.137	0.186
SW 1573	0.119	0.115	0.143	0.102	0.0766	0.0872	0.139	0.131	0.0878	0.0783	0.146	0.155	0.128	0.142	0.0856	0.0449	0.0562	0.134	0.065	0.0544
UMC-11	0.262	0.241	0.23	0.193	0.175	0.155	0.139	0.238	0.213	0.169	0.249	0.212	0.223	0.183	0.185	0.235	0.186	0.183	0.181	0.142
